Among the data in publication PMC8871312, “Effects of Microbial Transformation on the Biological Activities of Prenylated Chalcones from Angelica keiskei” (Foods, 2022) are IC50 values, retold here.

The structures appear in SMILES notation.

The first test addresses T1, Tyrosinase from mushroom.
T1 construct: gene PPO3
The experiment in a line: dopachrome absorbance at […] nm. In kind it is biochemical. Conditions: 2 mM L-tyrosine, 0.1 M phosphate pH 6.5, 37 °C, 30 min, 150 U/mL enzyme; read-out: IC50 ± SD (μM) / Tyrosinase.
For `CC(C)=CCc1c(O)ccc(C(=O)/C=C/c2ccc(O)cc2)c1O` [compound 1, isobavachalcone], the IC50 was > 100 µM. On the same count and under the same terms, the figure for `CC(C)=CCC/C(C)=C/Cc1c(O)ccc(C(=O)/C=C/c2ccc(O)cc2)c1O` [compound 3, xanthoangelol] is > 100 µM. Same read-out and setting: the figure for `CC(C)(O)CCc1c(O[C@@H]2O[C@H](CO)[C@@H](O)[C@H](O)[C@H]2O)ccc(C(=O)/C=C/c2ccc(O)cc2)c1O` [compound 4, 3′-(3-Hydroxy-3-methylbutyl)-4′-O-β-D-glucopyranosyl-4,2′-dihydroxychalcone] is 78.5 ± 3.13 µM; for `COC(C)(C)CCc1c(O[C@@H]2O[C@H](CO)[C@@H](O)[C@H](O)[C@H]2O)ccc(C(=O)/C=C/c2ccc(O)cc2)c1O` [compound 5, 3′-(3-O-Methyl-3-methylbutyl)-4′-O-β-D-glucopyranosyl-4,2′-dihydroxychalcone] it is 28.7 ± 1.24 µM. Regarding `CC(C)=CCc1c(O[C@@H]2O[C@H](CO)[C@@H](O)[C@H](O)[C@H]2O)ccc(C(=O)/C=C/c2ccc(O)cc2)c1O` [compound 6, 3′-(3-methyl-2-butenyl)-4′-O-β-D-glucopyranosyl-4,2′-dihydroxychalcone], the IC50 came to 43.1 ± 6.74 µM.

Turning to `CCOC(C)(C)CCc1c(O[C@@H]2O[C@H](CO)[C@@H](O)[C@H](O)[C@H]2O)ccc(C(=O)/C=C/c2ccc(O)cc2)c1O` [compound 7, 3′-(3-O-Ethyl-3-methylbutyl)-4′-O-β-D-glucopyranosyl-4,2′-dihydroxychalcone], the IC50 amounted to 33.3 ± 1.16 µM. The same measure, in the same setting: the same measure for `CC(C)=CCC/C(C)=C/Cc1c(O[C@@H]2O[C@H](CO)[C@@H](O)[C@H](O)[C@H]2O)ccc(C(=O)/C=C/c2ccc(O)cc2)c1O` [compound 10, 4′-O-β-D-Glucopyranosyl xanthoangelol]: 71.7 ± 9.22 µM.

The next test has as its target T1, Tyrosinase from mushroom. As to the kind of experiment: dopachrome absorbance at […] nm. It is filed as biochemical. Conditions: 2 mM L-tyrosine, 0.1 M phosphate pH 6.5, 37 °C, 30 min, 150 U/mL enzyme; read-out: IC50 ± SD (μM) / Tyrosinase. The source holds these as a separate data set.
Regarding `COc1ccc(C(=O)/C=C/c2ccc(O)cc2)c(O)c1CC=C(C)C` [compound 2, 4-hydroxyderricin], the IC50 was > 100 µM.
